Source: PubChem BioAssay (NCI)
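Test compounds were applied to cells in 96-well plates for 48 hours at 5 doses. TGI is the concentration that stops growth completely.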

What was measured:
Assay in all cases: growth of human tumour cells (NCI), 48 h
786-0 renal = tested on: 786-0 renal
A498 renal = tested on: A498 renal
A549 NSCLC = tested on: A549 NSCLC
ACHN renal = tested on: ACHN renal
CAKI-1 renal = tested on: CAKI-1 renal
CCRF-CEM leukemia = tested on: CCRF-CEM leukemia
COLO 205 colon = tested on: COLO 205 colon
DLD-1 colon = tested on: DLD-1 colon
DMS 114 small cell lung = tested on: DMS 114 small cell lung
DMS 273 small cell lung = tested on: DMS 273 small cell lung
EKVX NSCLC = tested on: EKVX NSCLC
HCC-2998 colon = tested on: HCC-2998 colon
HCT-116 colon = tested on: HCT-116 colon
HCT-15 colon = tested on: HCT-15 colon
HL-60(TB) leukemia = tested on: HL-60(TB) leukemia
HOP-18 NSCLC = tested on: HOP-18 NSCLC
HOP-62 NSCLC = tested on: HOP-62 NSCLC
HOP-92 NSCLC = tested on: HOP-92 NSCLC
HT29 colon = tested on: HT29 colon
IGROV1 ovarian = tested on: IGROV1 ovarian
K-562 leukemia = tested on: K-562 leukemia
KM12 colon = tested on: KM12 colon
KM20L2 colon = tested on: KM20L2 colon
LOX IMVI melanoma = tested on: LOX IMVI melanoma
LXFL 529 NSCLC = tested on: LXFL 529 NSCLC
M14 melanoma = tested on: M14 melanoma
M19-MEL melanoma = tested on: M19-MEL melanoma
MALME-3M melanoma = tested on: MALME-3M melanoma
MOLT-4 leukemia = tested on: MOLT-4 leukemia
NCI-H226 lung = tested on: NCI-H226 lung
NCI-H23 lung = tested on: NCI-H23 lung
NCI-H460 lung = tested on: NCI-H460 lung
NCI-H522 lung = tested on: NCI-H522 lung
OVCAR-3 ovarian = tested on: OVCAR-3 ovarian
OVCAR-4 ovarian = tested on: OVCAR-4 ovarian
OVCAR-5 ovarian = tested on: OVCAR-5 ovarian
OVCAR-8 ovarian = tested on: OVCAR-8 ovarian
RXF 393 renal = tested on: RXF 393 renal
RXF-631 renal = tested on: RXF-631 renal
SF-268 CNS = tested on: SF-268 CNS
SF-295 CNS = tested on: SF-295 CNS
SF-539 CNS = tested on: SF-539 CNS
SK-MEL-2 melanoma = tested on: SK-MEL-2 melanoma
SK-MEL-28 melanoma = tested on: SK-MEL-28 melanoma
SK-MEL-5 melanoma = tested on: SK-MEL-5 melanoma
SK-OV-3 ovarian = tested on: SK-OV-3 ovarian
SN12C renal = tested on: SN12C renal
SNB-19 CNS = tested on: SNB-19 CNS
SNB-75 CNS = tested on: SNB-75 CNS
SNB-78 CNS = tested on: SNB-78 CNS
SR leukemia = tested on: SR leukemia
SW-620 colon = tested on: SW-620 colon
TK-10 renal = tested on: TK-10 renal
U251 CNS = tested on: U251 CNS
UACC-257 melanoma = tested on: UACC-257 melanoma
UACC-62 melanoma = tested on: UACC-62 melanoma
UO-31 renal = tested on: UO-31 renal
XF 498 CNS = tested on: XF 498 CNS
RPMI-8226 leukemia = tested on: RPMI-8226 leukemia

## CC1NOC(=O)C1N=Nc1ccc(Cl)cc1Cl (stereo not drawn)
786-0 renal
  TGI: 41.9 µM
A498 renal
  TGI: 99.5 µM
A549 NSCLC
  TGI: 65.9 µM
ACHN renal
  TGI: 55.5 µM
CAKI-1 renal
  TGI: 60.9 µM
CCRF-CEM leukemia
  TGI: > 100 µM
COLO 205 colon
  TGI: 39 µM
DLD-1 colon
  TGI: > 100 µM
DMS 114 small cell lung
  TGI: 53.9 µM
DMS 273 small cell lung
  TGI: 56.8 µM
EKVX NSCLC
  TGI: 73.4 µM
HCC-2998 colon
  TGI: 80.4 µM
HCT-116 colon
  TGI: 52.5 µM
HCT-15 colon
  TGI: 38.3 µM
HL-60(TB) leukemia
  TGI: 44.8 µM
HOP-18 NSCLC
  TGI: 50.4 µM
HOP-62 NSCLC
  TGI: > 100 µM
HOP-92 NSCLC
  TGI: 44.3 µM
HT29 colon
  TGI: > 100 µM
IGROV1 ovarian
  TGI: 85.7 µM
K-562 leukemia
  TGI: 82.5 µM
KM12 colon
  TGI: 32.6 µM
KM20L2 colon
  TGI: > 100 µM
LOX IMVI melanoma
  TGI: 66.1 µM
LXFL 529 NSCLC
  TGI: 45.3 µM
M14 melanoma
  TGI: 47.4 µM
M19-MEL melanoma
  TGI: 64.3 µM
MALME-3M melanoma
  TGI: 56.8 µM
MOLT-4 leukemia
  TGI: 50.7 µM
NCI-H226 lung
  TGI: 63.4 µM
NCI-H23 lung
  TGI: 64.2 µM
NCI-H460 lung
  TGI: 59.5 µM
NCI-H522 lung
  TGI: 35.1 µM
OVCAR-3 ovarian
  TGI: 36.9 µM
OVCAR-4 ovarian
  TGI: 56.5 µM
OVCAR-5 ovarian
  TGI: > 100 µM
OVCAR-8 ovarian
  TGI: 72 µM
RXF 393 renal
  TGI: 46.1 µM
RXF-631 renal
  TGI: > 100 µM
SF-268 CNS
  TGI: 81.7 µM
SF-295 CNS
  TGI: 68.6 µM
SF-539 CNS
  TGI: > 100 µM
SK-MEL-2 melanoma
  TGI: 75 µM
SK-MEL-28 melanoma
  TGI: > 100 µM
SK-MEL-5 melanoma
  TGI: 73.2 µM
SK-OV-3 ovarian
  TGI: 77.2 µM
SN12C renal
  TGI: 49.1 µM
SNB-19 CNS
  TGI: 55.8 µM
SNB-75 CNS
  TGI: 46.5 µM
SNB-78 CNS
  TGI: 69.2 µM
SR leukemia
  TGI: 71.9 µM
SW-620 colon
  TGI: 21.2 µM
TK-10 renal
  TGI: 62.7 µM
U251 CNS
  TGI: 38.5 µM
UACC-257 melanoma
  TGI: 67.2 µM
UACC-62 melanoma
  TGI: > 100 µM
UO-31 renal
  TGI: 51 µM
XF 498 CNS
  TGI: 45 µM

## Cc1nc2ccccc2c(=O)n1/N=C(\N=Nc1ccccc1Cl)c1ccccc1Cl
786-0 renal
  TGI: > 100 µM
A498 renal
  TGI: > 100 µM
A549 NSCLC
  TGI: > 100 µM
ACHN renal
  TGI: > 100 µM
CAKI-1 renal
  TGI: 63.4 µM
CCRF-CEM leukemia
  TGI: > 100 µM
COLO 205 colon
  TGI: > 100 µM
DLD-1 colon
  TGI: > 100 µM
DMS 114 small cell lung
  TGI: > 100 µM
DMS 273 small cell lung
  TGI: > 100 µM
EKVX NSCLC
  TGI: > 100 µM
HCT-116 colon
  TGI: > 100 µM
HCT-15 colon
  TGI: > 100 µM
HL-60(TB) leukemia
  TGI: > 100 µM
HOP-18 NSCLC
  TGI: > 100 µM
HOP-62 NSCLC
  TGI: > 100 µM
HOP-92 NSCLC
  TGI: 43.7 µM
HT29 colon
  TGI: > 100 µM
IGROV1 ovarian
  TGI: > 100 µM
K-562 leukemia
  TGI: > 100 µM
KM20L2 colon
  TGI: > 100 µM
LOX IMVI melanoma
  TGI: > 100 µM
LXFL 529 NSCLC
  TGI: > 100 µM
M14 melanoma
  TGI: > 100 µM
M19-MEL melanoma
  TGI: > 100 µM
MOLT-4 leukemia
  TGI: > 100 µM
NCI-H23 lung
  TGI: > 100 µM
NCI-H460 lung
  TGI: > 100 µM
NCI-H522 lung
  TGI: 98.4 µM
OVCAR-8 ovarian
  TGI: > 100 µM
RPMI-8226 leukemia
  TGI: > 100 µM
RXF 393 renal
  TGI: 40.5 µM
RXF-631 renal
  TGI: > 100 µM
SF-268 CNS
  TGI: > 100 µM
SF-539 CNS
  TGI: > 100 µM
SK-MEL-28 melanoma
  TGI: > 100 µM
SK-MEL-5 melanoma
  TGI: > 100 µM
SK-OV-3 ovarian
  TGI: 64.4 µM
SN12C renal
  TGI: > 100 µM
SW-620 colon
  TGI: > 100 µM
TK-10 renal
  TGI: > 100 µM
U251 CNS
  TGI: > 100 µM
UACC-62 melanoma
  TGI: > 100 µM
UO-31 renal
  TGI: > 100 µM
XF 498 CNS
  TGI: 26.8 µM
